Measured values published in patent US11661426B2, “Imidazole-containing inhibitors of ALK2 kinase” (BioCryst Pharmaceuticals, Inc., priority 2017, dated 2023).

Target: ALK2 (Homo sapiens (Human), UniProt Q04771)
Assay: ALK2 inhibition, LanthaScreen Eu Kinase Binding Assay (ThermoFisher Scientific / Life Technologies)
Conditions: read-out: Measured Ki (IC50) Value for Compounds: IC50
Experimental: Biochemical assays to measure the inhibitory effects of the compounds were performed by ThermoFisher Scientific (Life Technologies). ALK2 inhibition was tested using LanthaScreen™ Eu Kinase Binding Assay screening protocol.

ALK2, sequence (Q04771 21-509): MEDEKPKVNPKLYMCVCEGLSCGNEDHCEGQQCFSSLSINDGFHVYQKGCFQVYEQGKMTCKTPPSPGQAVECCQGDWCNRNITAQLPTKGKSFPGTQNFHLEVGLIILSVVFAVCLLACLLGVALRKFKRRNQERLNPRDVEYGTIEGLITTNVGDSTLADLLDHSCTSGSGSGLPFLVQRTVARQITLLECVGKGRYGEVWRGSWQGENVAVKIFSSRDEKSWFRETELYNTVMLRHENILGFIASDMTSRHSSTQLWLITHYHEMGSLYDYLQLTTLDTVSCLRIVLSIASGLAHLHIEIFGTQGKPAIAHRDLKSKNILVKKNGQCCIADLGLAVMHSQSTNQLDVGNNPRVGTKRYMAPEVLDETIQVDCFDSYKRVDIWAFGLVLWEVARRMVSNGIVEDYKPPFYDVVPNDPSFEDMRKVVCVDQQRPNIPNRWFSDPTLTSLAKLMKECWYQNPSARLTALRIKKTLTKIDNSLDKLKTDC

IC50 [nM]	SMILES
100 to 1000	COc1cc(-n2cnc(Nc3cc4ccccc4c(N4CCC[C@@H]4CO)n3)c2)cc(OC)c1OC [Compound 369b, (R)-(1-(3-(1-(3,4,5-trimethoxyphenyl)-1H-imidazol-4-ylamino)isoquinolin-1-yl)pyrrolidin-2-yl)methanol]
< 100	COc1cc(-n2cnc(Nc3nc(N4CCC[C@H]4CO)c4c(C)nn([C@H]5C[C@@H](O)C5)c4n3)c2)cc(OC)c1OC [Compound 466c, (cis)-3-(4-((S)-2-(hydroxymethyl)pyrrolidin-1-yl)-3-methyl-6-((1-(3,4,5-trimethoxyphenyl)-1H-imidazol-4-yl)amino)-1H-pyrazolo[3,4-d]pyrimidin-1-yl)cyclobutanol]
< 100	COc1cc(-n2cnc(Nc3nc(N4CCC[C@H]4CO)nn4c(C5=CCNCC5)ccc34)c2)cc(OC)c1OC [Compound 107a, (S)-(1-(7-(1,2,3,6-tetrahydropyridin-4-yl)-4-(1-(3,4,5-trimethoxyphenyl)-1H-imidazol-4-ylamino)pyrrolo[1,2-f][1,2,4]triazin-2-yl)pyrrolidin-2-yl)methanol]
< 100	OC[C@@H]1CCCN1c1nc(Nc2cn(-c3cc[nH]n3)cn2)c2cccn2n1 [Compound 71c, (S)-(1-(4-((1-(1H-pyrazol-3-yl)-1H-imidazol-4-yl)amino)pyrrolo[2,1-f][1,2,4]triazin-2-yl)pyrrolidin-2-yl)methanol]
< 100	COCCN1CCN(Cc2ccc3c(Nc4cn(-c5cc(OC)c(OC)c(OC)c5)cn4)nc(N4CCC[C@H]4CO)nn23)CC1 [Compound 114b, (S)-(1-(7-((4-(2-methoxyethyl)piperazin-1-yl)methyl)-4-((1-(3,4,5-trimethoxyphenyl)-1H-imidazol-4-yl)amino)pyrrolo[2,1-f][1,2,4]triazin-2-yl)pyrrolidin-2-yl)methanol]
< 100	COc1cc(-n2cnc(Nc3nc(N4CC[C@@H](O)C4)nc4ccoc34)c2)cc(OC)c1OC [Compound 236a, (R)-1-(4-((1-(3,4,5-trimethoxyphenyl)-1H-imidazol-4-yl)amino)furo[3,2-d]pyrimidin-2-yl)pyrrolidin-3-ol]
< 100	COc1cc(-n2cnc(Nc3nc(N4CCC[C@H]4CO)c4ccn(C(C)C)c4n3)c2)cc(OC)c1OC [Compound 472c, (S)-(1-(7-isopropyl-2-((1-(3,4,5-trimethoxyphenyl)-1H-imidazol-4-yl)amino)-7H-pyrrolo[2,3-d]pyrimidin-4-yl)pyrrolidin-2-yl)methanol]
100 to 1000	C[C@H](Nc1nc(Nc2cn(-c3ccccc3)cn2)c2ccccc2n1)c1ccccc1 [Compound 24b, (S)—N4-(1-phenyl-1H-imidazol-4-yl)-N2-(1-phenylethyl)quinazoline-2,4-diamine]
100 to 1000	N#Cc1ccc(-n2cnc(Nc3nc(N4CCC[C@H]4CO)nn4cccc34)c2)cc1 [Compound 116c, (S)-4-(4-((2-(2-(hydroxymethyl)pyrrolidin-1-yl)pyrrolo[2,1-f][1,2,4]triazin-4-yl)amino)-1H-imidazol-1-yl)benzonitrile]
< 100	COc1cc(-n2cnc(Nc3nc4c(c(N5CCC[C@H]5CO)n3)CCN(Cc3ccc(C(F)(F)F)cc3)C4)c2)cc(OC)c1OC [Compound 215a, (S)-(1-(7-(4-(trifluoromethyl)benzyl)-2-((1-(3,4,5-trimethoxyphenyl)-1H-imidazol-4-yl)amino)-5,6,7,8-tetrahydropyrido[3,4-d]pyrimidin-4-yl)pyrrolidin-2-yl)methanol]
< 100	COc1cc(-n2cnc(Nc3nc(N4CCC[C@@H]4CO)c4ccccc4n3)c2)cc(OC)c1OC [Compound 327b, (R)-(1-(2-((1-(3,4,5-trimethoxyphenyl)-1H-imidazol-4-yl)amino)quinazolin-4-yl)pyrrolidin-2-yl)methanol]
< 100	COc1cc(-n2cnc(Nc3nc(N4CCC[C@H]4CO)nn4cccc34)c2)cc(OC)c1OC [Compound 57c, (S)-(1-(4-((1-(3,4,5-trimethoxyphenyl)-1H-imidazol-4-yl)amino)pyrrolo[2,1-f][1,2,4]triazin-2-yl)pyrrolidin-2-yl)methanol]
< 100	COc1cc(-n2cnc(Nc3nc(N4CCC[C@H]4CO)c4ncccc4n3)c2)cc(OC)c1OC [Compound 175b, (S)-(1-(2-((1-(3,4,5-trimethoxyphenyl)-1H-imidazol-4-yl)amino)pyrido[3,2-d]pyrimidin-4-yl)pyrrolidin-2-yl)methanol]
< 100	COc1cc(-n2cnc(Nc3nc(N4CCC[C@@H]4CO)nn4cccc34)c2)cc(OC)c1OC [Compound 238a, (R)-(1-(4-((1-(3,4,5-trimethoxyphenyl)-1H-imidazol-4-yl)amino)pyrrolo[2,1-f][1,2,4]triazin-2-yl)pyrrolidin-2-yl)methanol]
< 100	COc1cc(-n2cnc(Nc3nc(N4CCC[C@H]4CO)c4ccc(-c5cccc(NS(C)(=O)=O)c5)cc4n3)c2)cc(OC)c1OC [Compound 363b, (S)—N-(3-(4-(2-(hydroxymethyl)pyrrolidin-1-yl)-2-((1-(3,4,5-trimethoxyphenyl)-1H-imidazol-4-yl)amino)quinazolin-7-yl)phenyl)methanesulfonamide]
100 to 1000	COc1cc(-n2cnc(Nc3nc(N4CCC[C@H]4C(N)=O)c4sccc4n3)c2)cc(OC)c1OC [Compound 139b, (S)-1-(2-((1-(3,4,5-trimethoxyphenyl)-1H-imidazol-4-yl)amino)thieno[3,2-d]pyrimidin-4-yl)pyrrolidine-2-carboxamide]
< 100	COc1ccc(-n2cnc(Nc3nc(N4CCC[C@H]4CO)nn4cccc34)c2)cc1C(F)(F)F [Compound 320b, (S)-(1-(4-((1-(4-methoxy-3-(trifluoromethyl)phenyl)-1H-imidazol-4-yl)amino)pyrrolo[2,1-f][1,2,4]triazin-2-yl)pyrrolidin-2-yl)methanol]
< 100	CC(=O)c1ccc(-n2cnc(Nc3nc(N4CCC[C@H]4CO)nn4cccc34)c2)cc1 [Compound 95c, (S)-1-(4-(4-(2-(2-(hydroxymethyl)pyrrolidin-1-yl)pyrrolo[1,2-f][1,2,4]triazin-4-ylamino)-1H-imidazol-1-yl)phenyl)ethanone]
< 100	OC[C@@H]1CCCN1c1nc(Nc2cn(-c3ccccc3)cn2)c2sccc2n1 [Compound 16b, (S)-(1-(4-((1-phenyl-1H-imidazol-4-yl)amino)thieno[3,2-d]pyrimidin-2-yl)pyrrolidin-2-yl)methanol]
< 100	COc1ccc(-c2nc(Nc3cn(-c4cc(OC)c(OC)c(OC)c4)cn3)c3cccn3n2)cc1 [Compound 88a, 2-(4-methoxyphenyl)-N-(1-(3,4,5-trimethoxyphenyl)-1H-imidazol-4-yl)pyrrolo[2,1-f][1,2,4]triazin-4-amine]
< 100	CNC(=O)c1cc(OC)cc(-n2cnc(Nc3nc(N4CCC[C@H]4CO)nn4cccc34)c2)c1 [Compound 427b, (S)-3-(4-((2-(2-(hydroxymethyl)pyrrolidin-1-yl)pyrrolo[2,1-f][1,2,4]triazin-4-yl)amino)-1H-imidazol-1-yl)-5-methoxy-N-methylbenzamide]
< 100	COc1cc(-n2cnc(Nc3nc(N4CC[C@H](O)C4)nc4ccoc34)c2)cc(OC)c1OC [Compound 237a, (S)-1-(4-((1-(3,4,5-trimethoxyphenyl)-1H-imidazol-4-yl)amino)furo[3,2-d]pyrimidin-2-yl)pyrrolidin-3-ol]
